ChEMBL document CHEMBL2413072, “Synthesis and in vitro anticancer studies of novel C-2 arylidene congeners of lantadenes” (2013)

Key:
Assay type in all cases: functional
SR = assay: Growth inhibition of human SR cells by sulforhodamine B assay
U-251 = assay: Growth inhibition of human U251 cells assessed as cell growth at 10^-8 M by sulforhodamine B assay; conditions: read-out: Activity
SF-295 = assay: Growth inhibition of human SF295 cells assessed as cell growth at 10^-8 M by sulforhodamine B assay; conditions: read-out: Activity
HT-29 [1] = assay: Growth inhibition of human HT-29 cells assessed as cell growth at 10^-8 M by sulforhodamine B assay; conditions: read-out: Activity
HL-60(TB) = assay: Growth inhibition of human HL-60(TB) cells assessed as cell growth at 10^-8 M by sulforhodamine B assay; conditions: read-out: Activity
OVCAR-8 [2] = assay: Growth inhibition of human OVCAR8 cells by sulforhodamine B assay
OVCAR-4 [3] = assay: Growth inhibition of human OVCAR4 cells by sulforhodamine B assay
UACC-257 = assay: Growth inhibition of human UACC257 cells by sulforhodamine B assay
LOX IMVI [4] = assay: Growth inhibition of human LOXIMVI cells by sulforhodamine B assay
TK-10 [5] = assay: Growth inhibition of human TK10 cells assessed as cell growth at 10^-4 M by sulforhodamine B assay; conditions: read-out: Activity
786-0 = assay: Growth inhibition of human 786-0 cells assessed as cell growth at 10^-4 M by sulforhodamine B assay; conditions: read-out: Activity
UACC-62 = assay: Growth inhibition of human UACC62 cells assessed as cell growth at 10^-4 M by sulforhodamine B assay; conditions: read-out: Activity
SW-620 [6] = assay: Growth inhibition of human SW620 cells assessed as cell growth at 10^-4 M by sulforhodamine B assay; conditions: read-out: Activity
NCI-H460 = assay: Growth inhibition of human NCI-H460 cells assessed as cell growth at 10^-4 M by sulforhodamine B assay; conditions: read-out: Activity
DU-145 = assay: Growth inhibition of human DU145 cells assessed as cell growth at 10^-6 M by sulforhodamine B assay; conditions: read-out: Activity
A498 = assay: Growth inhibition of human A498 cells assessed as cell growth at 10^-6 M by sulforhodamine B assay; conditions: read-out: Activity
OVCAR-8 [7] = assay: Growth inhibition of human OVCAR8 cells assessed as cell growth at 10^-6 M by sulforhodamine B assay; conditions: read-out: Activity
OVCAR-4 [8] = assay: Growth inhibition of human OVCAR4 cells assessed as cell growth at 10^-6 M by sulforhodamine B assay; conditions: read-out: Activity
SK-MEL-28 = assay: Growth inhibition of human SK-MEL-28 cells assessed as cell growth at 10^-6 M by sulforhodamine B assay; conditions: read-out: Activity
SK-MEL-2 = assay: Growth inhibition of human SK-MEL-2 cells assessed as cell growth at 10^-6 M by sulforhodamine B assay; conditions: read-out: Activity
SF-539 = assay: Growth inhibition of human SF539 cells assessed as cell growth at 10^-6 M by sulforhodamine B assay; conditions: read-out: Activity
SW-620 [9] = assay: Growth inhibition of human SW620 cells assessed as cell growth at 10^-6 M by sulforhodamine B assay; conditions: read-out: Activity
KM12 = assay: Growth inhibition of human KM12 cells assessed as cell growth at 10^-6 M by sulforhodamine B assay; conditions: read-out: Activity
HT-29 [10] = assay: Growth inhibition of human HT-29 cells assessed as cell growth at 10^-6 M by sulforhodamine B assay; conditions: read-out: Activity
HCT-116 = assay: Growth inhibition of human HCT116 cells assessed as cell growth at 10^-6 M by sulforhodamine B assay; conditions: read-out: Activity
[11] = Growth inhibition of human HCC2998 cells assessed as cell growth at 10^-6 M by sulforhodamine B assay; conditions: HCC 2998, read-out: Activity
COLO 205 [12] = assay: Growth inhibition of human COLO205 cells assessed as cell growth at 10^-6 M by sulforhodamine B assay; conditions: read-out: Activity
CCRF-CEM [13] = assay: Growth inhibition of human CCRF-CEM cells assessed as cell growth at 10^-6 M by sulforhodamine B assay; conditions: read-out: Activity
MDA-MB-231 = assay: Growth inhibition of human MDA-MB-231 cells assessed as cell growth at 10^-7 M by sulforhodamine B assay; conditions: read-out: Activity
ACHN = assay: Growth inhibition of human ACHN cells assessed as cell growth at 10^-7 M by sulforhodamine B assay; conditions: read-out: Activity
SK-OV-3 = assay: Growth inhibition of human SKOV3 cells assessed as cell growth at 10^-7 M by sulforhodamine B assay; conditions: read-out: Activity
[14] = Growth inhibition of human NCI-ADR-RES cells assessed as cell growth at 10^-7 M by sulforhodamine B assay; conditions: read-out: Activity
M14 = assay: Growth inhibition of human M14 cells assessed as cell growth at 10^-7 M by sulforhodamine B assay; conditions: read-out: Activity
Malme-3M = assay: Growth inhibition of human MALME-3M cells assessed as cell growth at 10^-7 M by sulforhodamine B assay; conditions: read-out: Activity
LOX IMVI [15] = assay: Growth inhibition of human LOXIMVI cells assessed as cell growth at 10^-7 M by sulforhodamine B assay; conditions: read-out: Activity
SW-620 [16] = assay: Growth inhibition of human SW620 cells assessed as cell growth at 10^-7 M by sulforhodamine B assay; conditions: read-out: Activity
COLO 205 [17] = assay: Growth inhibition of human COLO205 cells assessed as cell growth at 10^-7 M by sulforhodamine B assay; conditions: read-out: Activity
NCI-H322M = assay: Growth inhibition of human NCI-H322M cells assessed as cell growth at 10^-7 M by sulforhodamine B assay; conditions: read-out: Activity
CCRF-CEM [18] = assay: Growth inhibition of human CCRF-CEM cells assessed as cell growth at 10^-7 M by sulforhodamine B assay; conditions: read-out: Activity
TK-10 [19] = assay: Growth inhibition of human TK10 cells assessed as cell growth at 10^-8 M by sulforhodamine B assay; conditions: read-out: Activity
SN12C = assay: Growth inhibition of human SN12C cells assessed as cell growth at 10^-8 M by sulforhodamine B assay; conditions: read-out: Activity
CAKI-1 = assay: Growth inhibition of human CAKI-1 cells assessed as cell growth at 10^-8 M by sulforhodamine B assay; conditions: read-out: Activity
OVCAR-4 [20] = assay: Growth inhibition of human OVCAR4 cells assessed as cell growth at 10^-8 M by sulforhodamine B assay; conditions: read-out: Activity
[21] = read-out: LC50 (the source's name)
[22] = read-out: pLC50 (the source's name) (converted)

In the case of `C/C=C(/C)C(=O)O[C@@H]1CC(C)(C)C[C@H]2C3=CC[C@@H]4[C@@]5(C)CC[C@H](O)C(C)(C)[C@@H]5CC[C@@]4(C)[C@]3(C)CC[C@@]12C(=O)O` [Reduced Lantadene A], the GI50 (SR; read-out: GI50) was 2.14 µM, the CC50 (SR; [21]) was > 100 µM and the TGI (SR; read-out: TGI) was 5.63 µM. The GI50 (SR; read-out: pGI50 (converted)) was 2.14 µM, the CC50 (SR; [22]) was > 100 µM and the TGI (SR; read-out: pTGI (converted)) was 5.62 µM. It also gave a growth at 0.01 µM (U-251) of 96%, a growth at 0.01 µM (SF-295) of 93% and a growth at 0.01 µM (HT-29 [1]) of 104%. The growth at 0.01 µM (HL-60(TB)) was 106%, the GI50 (OVCAR-8 [2]; read-out: GI50) was 1.92 µM and the TGI (OVCAR-8 [2]; read-out: TGI) was 3.87 µM. For the same compound, the GI50 (OVCAR-8 [2]; read-out: pGI50 (converted)) was 1.91 µM, the TGI (OVCAR-8 [2]; read-out: pTGI (converted)) was 3.89 µM and the GI50 (OVCAR-4 [3]; read-out: GI50) was 1.77 µM. The TGI (OVCAR-4 [3]; read-out: TGI) was 3.74 µM, the GI50 (OVCAR-4 [3]; read-out: pGI50 (converted)) was 1.78 µM and the TGI (OVCAR-4 [3]; read-out: pTGI (converted)) was 3.72 µM. For the same compound, the GI50 (UACC-257; read-out: GI50) was 2.13 µM, the CC50 (UACC-257; [21]) was 19.3 µM and the TGI (UACC-257; read-out: TGI) was 4.93 µM. For the same compound, the GI50 (UACC-257; read-out: pGI50 (converted)) was 2.14 µM, the CC50 (UACC-257; [22]) was 19.5 µM and the TGI (UACC-257; read-out: pTGI (converted)) was 4.9 µM. It also gave a GI50 (LOX IMVI [4]; read-out: GI50) of 3.39 µM, a CC50 (LOX IMVI [4]; [21]) of 66.8 µM and a TGI (LOX IMVI [4]; read-out: TGI) of 13 µM. The GI50 (LOX IMVI [4]; read-out: pGI50 (converted)) was 3.39 µM, the CC50 (LOX IMVI [4]; [22]) was 66.1 µM and the TGI (LOX IMVI [4]; read-out: pTGI (converted)) was 12.9 µM. The growth at 100 µM (TK-10 [5]) was -69%, the growth at 100 µM (786-0) was -55% and the growth at 100 µM (UACC-62) was -70%. The growth at 100 µM (SW-620 [6]) was -32%, the growth at 100 µM (NCI-H460) was -37% and the growth at 1 µM (DU-145) was 109%. The growth at 1 µM (A498) was 78%, the growth at 1 µM (OVCAR-8 [7]) was 97% and the growth at 1 µM (OVCAR-4 [8]) was 88%. For the same compound, the growth at 1 µM (SK-MEL-28) was 90%, the growth at 1 µM (SK-MEL-2) was 109% and the growth at 1 µM (SF-539) was 101%. The growth at 1 µM (SW-620 [9]) was 90%, the growth at 1 µM (KM12) was 69% and the growth at 1 µM (HT-29 [10]) was 105%. For the same compound, the growth at 1 µM (HCT-116) was 82%, the growth at 1 µM [11] was 101% and the growth at 1 µM (COLO 205 [12]) was 104%. The growth at 1 µM (CCRF-CEM [13]) was 90%, the growth at 0.1 µM (MDA-MB-231) was 95% and the growth at 0.1 µM (ACHN) was 101%. For the same compound, the growth at 0.1 µM (SK-OV-3) was 102%, the growth at 0.1 µM [14] was 105% and the growth at 0.1 µM (M14) was 92%. For the same compound, the growth at 0.1 µM (Malme-3M) was 94%, the growth at 0.1 µM (LOX IMVI [15]) was 100% and the growth at 0.1 µM (SW-620 [16]) was 95%. It also gave a growth at 0.1 µM (COLO 205 [17]) of 107%, a growth at 0.1 µM (NCI-H322M) of 98% and a growth at 0.1 µM (CCRF-CEM [18]) of 100%. The growth at 0.01 µM (TK-10 [19]) was 103%, the growth at 0.01 µM (SN12C) was 96% and the growth at 0.01 µM (CAKI-1) was 96%. For the same compound, the growth at 0.01 µM (OVCAR-4 [20]) was 97%.
